In PubChem BioAssay (NCI):
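Where inhibition never reached the appropriate level, the endpoint shown equals the highest concentration tested. Otherwise, values were interpolated linearly from a five-concentration, 48-hour dose response in 96-well plates. TGI: total growth inhibition.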

What was measured:
Test in all cases: NCI anticancer screen, dose series, 48 h
786-0 renal = tested on: 786-0 renal
A498 renal = tested on: A498 renal
A549 NSCLC = tested on: A549 NSCLC
ACHN renal = tested on: ACHN renal
BT-549 breast = tested on: BT-549 breast
CAKI-1 renal = tested on: CAKI-1 renal
CCRF-CEM leukemia = tested on: CCRF-CEM leukemia
COLO 205 colon = tested on: COLO 205 colon
DU-145 prostate = tested on: DU-145 prostate
EKVX NSCLC = tested on: EKVX NSCLC
HCC-2998 colon = tested on: HCC-2998 colon
HCT-116 colon = tested on: HCT-116 colon
HCT-15 colon = tested on: HCT-15 colon
HL-60(TB) leukemia = tested on: HL-60(TB) leukemia
HOP-62 NSCLC = tested on: HOP-62 NSCLC
HS 578T breast = tested on: HS 578T breast
HT29 colon = tested on: HT29 colon
K-562 leukemia = tested on: K-562 leukemia
KM12 colon = tested on: KM12 colon
LOX IMVI melanoma = tested on: LOX IMVI melanoma
M14 melanoma = tested on: M14 melanoma
MALME-3M melanoma = tested on: MALME-3M melanoma
MCF7 breast = tested on: MCF7 breast
MDA-MB-231 breast = tested on: MDA-MB-231 breast
MDA-MB-435 = tested on: MDA-MB-435
MDA-N = tested on: MDA-N
MOLT-4 leukemia = tested on: MOLT-4 leukemia
NCI-H226 lung = tested on: NCI-H226 lung
NCI-H23 lung = tested on: NCI-H23 lung
NCI-H460 lung = tested on: NCI-H460 lung
NCI-H522 lung = tested on: NCI-H522 lung
OVCAR-3 ovarian = tested on: OVCAR-3 ovarian
OVCAR-4 ovarian = tested on: OVCAR-4 ovarian
OVCAR-5 ovarian = tested on: OVCAR-5 ovarian
OVCAR-8 ovarian = tested on: OVCAR-8 ovarian
PC-3 prostate = tested on: PC-3 prostate
RPMI-8226 leukemia = tested on: RPMI-8226 leukemia
RXF 393 renal = tested on: RXF 393 renal
SF-268 CNS = tested on: SF-268 CNS
SF-295 CNS = tested on: SF-295 CNS
SF-539 CNS = tested on: SF-539 CNS
SK-MEL-2 melanoma = tested on: SK-MEL-2 melanoma
SK-MEL-28 melanoma = tested on: SK-MEL-28 melanoma
SK-MEL-5 melanoma = tested on: SK-MEL-5 melanoma
SK-OV-3 ovarian = tested on: SK-OV-3 ovarian
SN12C renal = tested on: SN12C renal
SNB-19 CNS = tested on: SNB-19 CNS
SNB-75 CNS = tested on: SNB-75 CNS
SR leukemia = tested on: SR leukemia
SW-620 colon = tested on: SW-620 colon
T-47D breast = tested on: T-47D breast
TK-10 renal = tested on: TK-10 renal
U251 CNS = tested on: U251 CNS
UACC-257 melanoma = tested on: UACC-257 melanoma
UACC-62 melanoma = tested on: UACC-62 melanoma
UO-31 renal = tested on: UO-31 renal
IGROV1 ovarian = tested on: IGROV1 ovarian
NCI/ADR-RES ovarian = tested on: NCI/ADR-RES ovarian

## N#CC[C@@H](O)COc1ccccc1
786-0 renal
  TGI: > 100 µM
A498 renal
  TGI: > 100 µM
A549 NSCLC
  TGI: > 100 µM
ACHN renal
  TGI: > 100 µM
BT-549 breast
  TGI: > 100 µM
CAKI-1 renal
  TGI: > 100 µM
CCRF-CEM leukemia
  TGI: > 100 µM
COLO 205 colon
  TGI: > 100 µM
DU-145 prostate
  TGI: > 100 µM
EKVX NSCLC
  TGI: > 100 µM
HCC-2998 colon
  TGI: > 100 µM
HCT-116 colon
  TGI: > 100 µM
HCT-15 colon
  TGI: > 100 µM
HL-60(TB) leukemia
  TGI: > 100 µM
HOP-62 NSCLC
  TGI: > 100 µM
HS 578T breast
  TGI: > 100 µM
HT29 colon
  TGI: > 100 µM
K-562 leukemia
  TGI: > 100 µM
KM12 colon
  TGI: > 100 µM
LOX IMVI melanoma
  TGI: > 100 µM
M14 melanoma
  TGI: > 100 µM
MALME-3M melanoma
  TGI: > 100 µM
MCF7 breast
  TGI: > 100 µM
MDA-MB-231 breast
  TGI: > 100 µM
MDA-MB-435
  TGI: > 100 µM
MDA-N
  TGI: > 100 µM
MOLT-4 leukemia
  TGI: > 100 µM
NCI-H226 lung
  TGI: > 100 µM
NCI-H23 lung
  TGI: > 100 µM
NCI-H460 lung
  TGI: > 100 µM
NCI-H522 lung
  TGI: > 100 µM
OVCAR-3 ovarian
  TGI: > 100 µM
OVCAR-4 ovarian
  TGI: > 100 µM
OVCAR-5 ovarian
  TGI: > 100 µM
OVCAR-8 ovarian
  TGI: > 100 µM
PC-3 prostate
  TGI: > 100 µM
RPMI-8226 leukemia
  TGI: > 100 µM
RXF 393 renal
  TGI: > 100 µM
SF-268 CNS
  TGI: > 100 µM
SF-295 CNS
  TGI: > 100 µM
SF-539 CNS
  TGI: > 100 µM
SK-MEL-2 melanoma
  TGI: > 100 µM
SK-MEL-28 melanoma
  TGI: > 100 µM
SK-MEL-5 melanoma
  TGI: > 100 µM
SK-OV-3 ovarian
  TGI: > 100 µM
SN12C renal
  TGI: > 100 µM
SNB-19 CNS
  TGI: > 100 µM
SNB-75 CNS
  TGI: > 100 µM
SR leukemia
  TGI: > 100 µM
SW-620 colon
  TGI: > 100 µM
T-47D breast
  TGI: > 100 µM
TK-10 renal
  TGI: > 100 µM
U251 CNS
  TGI: > 100 µM
UACC-257 melanoma
  TGI: > 100 µM
UACC-62 melanoma
  TGI: > 100 µM
UO-31 renal
  TGI: > 100 µM

## C=CCN(Cc1ccncc1)C(=O)C(O)(c1ccccc1)c1ccccc1
786-0 renal
  TGI: > 100 µM
A549 NSCLC
  TGI: > 100 µM
ACHN renal
  TGI: > 100 µM
BT-549 breast
  TGI: > 100 µM
CAKI-1 renal
  TGI: > 100 µM
CCRF-CEM leukemia
  TGI: > 100 µM
COLO 205 colon
  TGI: > 100 µM
DU-145 prostate
  TGI: > 100 µM
EKVX NSCLC
  TGI: > 100 µM
HCC-2998 colon
  TGI: > 100 µM
HCT-116 colon
  TGI: > 100 µM
HCT-15 colon
  TGI: > 100 µM
HL-60(TB) leukemia
  TGI: > 100 µM
HOP-62 NSCLC
  TGI: > 100 µM
HT29 colon
  TGI: > 100 µM
IGROV1 ovarian
  TGI: > 100 µM
K-562 leukemia
  TGI: > 100 µM
KM12 colon
  TGI: > 100 µM
LOX IMVI melanoma
  TGI: > 100 µM
M14 melanoma
  TGI: > 100 µM
MALME-3M melanoma
  TGI: > 100 µM
MCF7 breast
  TGI: > 100 µM
MDA-MB-231 breast
  TGI: > 100 µM
MDA-MB-435
  TGI: > 100 µM
MDA-N
  TGI: > 100 µM
MOLT-4 leukemia
  TGI: > 100 µM
NCI-H226 lung
  TGI: > 100 µM
NCI-H23 lung
  TGI: > 100 µM
NCI-H522 lung
  TGI: > 100 µM
NCI/ADR-RES ovarian
  TGI: 37.4 µM
OVCAR-3 ovarian
  TGI: > 100 µM
OVCAR-5 ovarian
  TGI: > 100 µM
OVCAR-8 ovarian
  TGI: > 100 µM
PC-3 prostate
  TGI: > 100 µM
RPMI-8226 leukemia
  TGI: 78.6 µM
RXF 393 renal
  TGI: > 100 µM
SF-268 CNS
  TGI: > 100 µM
SF-295 CNS
  TGI: > 100 µM
SF-539 CNS
  TGI: > 100 µM
SK-MEL-28 melanoma
  TGI: > 100 µM
SK-MEL-5 melanoma
  TGI: > 100 µM
SK-OV-3 ovarian
  TGI: > 100 µM
SN12C renal
  TGI: > 100 µM
SNB-19 CNS
  TGI: > 100 µM
SNB-75 CNS
  TGI: > 100 µM
SR leukemia
  TGI: > 100 µM
SW-620 colon
  TGI: > 100 µM
T-47D breast
  TGI: > 100 µM
TK-10 renal
  TGI: > 100 µM
U251 CNS
  TGI: > 100 µM
UACC-257 melanoma
  TGI: > 100 µM
UACC-62 melanoma
  TGI: > 100 µM
UO-31 renal
  TGI: 56.5 µM
